Laboratory results from PubChem BioAssay AID330 (DTP/NCI, 2004).
Values joined by “and” are separate entries in the source; they are usually repeats but may differ in a detail not shown here. Equal entries are not always repeated. Inconclusive results and toxic doses are left out. Rule for the calls: active = survival T/C of 150% or more; inactive = T/C below 125% in these data.

Tested on: P388 leukemia ip, CD2F1 mice, survival T/C
Test: NCI In Vivo Anticancer Drug Screen. Data for tumor model P388 Leukemia (intraperitoneal) in CD2F1 (CDF1) mice
Conditions: endpoint: median survival time, higher = longer survival
In short: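 Mice carrying the transplanted tumor received test compound or vehicle. Survival was recorded in each group, and the value is the treated-group measurement divided by that of the vehicle-treated control group.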

[1] = dose: 100.0 mg/kg/injection, schedule: Q01DX009 (ip), vehicle: Klucel (hydroxypropylcellulose) (HPC)
[2] = dose: 50.0 mg/kg/injection, schedule: Q01DX009 (ip), vehicle: saline with Tween-80
[3] = dose: 100.0 mg/kg/injection, schedule: Q01DX009 (ip), vehicle: saline with Tween-80
[4] = dose: 200.0 mg/kg/injection, schedule: Q01DX009 (ip), vehicle: saline with Tween-80

Measured: T/C

O=C(CN(OC(=O)c1ccccc1)C(=O)c1ccccc1)OCc1ccccc1
inactive: dose: 12.5 mg/kg/injection, schedule: Q01DX009 (ip), vehicle: distilled water + Tween-80 92 % of control | dose: 25.0 mg/kg/injection, schedule: Q01DX009 (ip), vehicle: distilled water + Tween-80 99 % of control | dose: 50.0 mg/kg/injection, schedule: Q01DX009 (ip), vehicle: distilled water + Tween-80 99 % of control | dose: 100.0 mg/kg/injection, schedule: Q01DX009 (ip), vehicle: distilled water + Tween-80 100 % of control | dose: 200.0 mg/kg/injection, schedule: Q01DX009 (ip), vehicle: distilled water + Tween-80 101 % of control

CCNC1=CC(=O)c2ncccc2C1=O
inactive: dose: 3.13 mg/kg/injection, schedule: Q01DX009 (ip), vehicle: DMSO 99 % of control | dose: 6.25 mg/kg/injection, schedule: Q01DX009 (ip), vehicle: DMSO 100 % of control | dose: 12.5 mg/kg/injection, schedule: Q01DX009 (ip), vehicle: DMSO 99 % of control | dose: 25.0 mg/kg/injection, schedule: Q01DX009 (ip), vehicle: DMSO 95 % of control

CCSc1n[nH]c(=O)n1C
inactive: dose: 50.0 mg/kg/injection, schedule: Q01DX005 (ip), vehicle: saline 99 % of control and 110 % of control | dose: 100.0 mg/kg/injection, schedule: Q01DX005 (ip), vehicle: saline 108 % of control and 114 % of control and 97 % of control | dose: 200.0 mg/kg/injection, schedule: Q01DX005 (ip), vehicle: saline 108 % of control and 121 % of control and 98 % of control | dose: 400.0 mg/kg/injection, schedule: Q01DX005 (ip), vehicle: saline 101 % of control and 109 % of control

CCN(CC)c1ccc(/C=C2\CCc3ccccc3C2=O)cc1
inactive: dose: 50.0 mg/kg/injection, schedule: Q01DX009 (ip), vehicle: Klucel (hydroxypropylcellulose) (HPC) 108 % of control | [1] 111 % of control | dose: 200.0 mg/kg/injection, schedule: Q01DX009 (ip), vehicle: Klucel (hydroxypropylcellulose) (HPC) 106 % of control

CCCCN(Cc1c(O)ccc2ccccc12)Cc1c(O)ccc2ccccc12
inactive: dose: 50.0 mg/kg/injection, schedule: Q01DX005 (ip), vehicle: Klucel (hydroxypropylcellulose) (HPC) 95 % of control | dose: 100.0 mg/kg/injection, schedule: Q01DX005 (ip), vehicle: Klucel (hydroxypropylcellulose) (HPC) 97 % of control | dose: 200.0 mg/kg/injection, schedule: Q01DX005 (ip), vehicle: Klucel (hydroxypropylcellulose) (HPC) 94 % of control

C[Si](C)(C)OSc1ccccc1[N+](=O)[O-]
inactive: dose: 12.5 mg/kg/injection, schedule: Q01DX009 (ip), vehicle: Klucel (hydroxypropylcellulose) (HPC) 121 % of control | [2] 120 % of control | [1] 122 % of control | [3] 114 % of control | [4] 115 % of control

COc1cc(OC2OC(COC3OC(CO)C(O)C(O)C3O)C(O)C(O)C2O)c2c(c1)C(=O)c1cc(C)cc(O)c1C2=O (configuration not stated)
inactive: dose: 25.0 mg/kg/injection, schedule: Q01DX005 (ip), vehicle: water 100 % of control | dose: 50.0 mg/kg/injection, schedule: Q01DX005 (ip), vehicle: water 98 % of control | dose: 100.0 mg/kg/injection, schedule: Q01DX005 (ip), vehicle: water 98 % of control | dose: 200.0 mg/kg/injection, schedule: Q01DX005 (ip), vehicle: water 96 % of control

CCCCOC(OCCCC)C(OCCCC)OCCCC
inactive: [3] 105 % of control | dose: 100.0 mg/kg/injection, schedule: Q04DX003 (ip), vehicle: saline sonified 95 % of control | [4] 110 % of control | dose: 200.0 mg/kg/injection, schedule: Q04DX003 (ip), vehicle: saline sonified 100 % of control | dose: 400.0 mg/kg/injection, schedule: Q01DX009 (ip), vehicle: saline with Tween-80 105 % of control | dose: 400.0 mg/kg/injection, schedule: Q04DX003 (ip), vehicle: saline sonified 104 % of control

Cc1ccc(C(C)(C)O)cc1O
inactive: dose: 8.75 mg/kg/injection, schedule: Q01DX005 (ip), vehicle: Klucel + Tween-80 100 % of control | dose: 17.5 mg/kg/injection, schedule: Q01DX005 (ip), vehicle: Klucel + Tween-80 100 % of control | dose: 35.0 mg/kg/injection, schedule: Q01DX005 (ip), vehicle: Klucel + Tween-80 103 % of control | dose: 70.0 mg/kg/injection, schedule: Q01DX005 (ip), vehicle: Klucel + Tween-80 103 % of control

O=[N+]([O-])c1ccc(N/N=C\c2c(Cl)n(-c3ccccc3)c3ccccc23)cc1
inactive: dose: 100.0 mg/kg/injection, schedule: Q04DX003 (ip), vehicle: saline with Tween-80 93 % of control | dose: 200.0 mg/kg/injection, schedule: Q04DX003 (ip), vehicle: saline with Tween-80 90 % of control | dose: 400.0 mg/kg/injection, schedule: Q01DX001 (ip), vehicle: saline 95 % of control | dose: 400.0 mg/kg/injection, schedule: Q04DX003 (ip), vehicle: saline with Tween-80 91 % of control

O=C1C(O)C(c2ccccc2)c2ccccc2N1c1ccccc1 (configuration not stated)
inactive: dose: 100.0 mg/kg/injection, schedule: Q01DX001 (ip), vehicle: Klucel (hydroxypropylcellulose) (HPC) 95 % of control | dose: 200.0 mg/kg/injection, schedule: Q01DX001 (ip), vehicle: Klucel (hydroxypropylcellulose) (HPC) 96 % of control | dose: 400.0 mg/kg/injection, schedule: Q01DX001 (ip), vehicle: Klucel (hydroxypropylcellulose) (HPC) 89 % of control

CCCC1(CC)CNC(=O)NC1=O (configuration not stated)
inactive: dose: 50.0 mg/kg/injection, schedule: Q01DX005 (ip), vehicle: saline with Tween-80 100 % of control | dose: 100.0 mg/kg/injection, schedule: Q01DX005 (ip), vehicle: saline with Tween-80 93 % of control | dose: 200.0 mg/kg/injection, schedule: Q01DX005 (ip), vehicle: saline with Tween-80 99 % of control

O=C(/C=C/c1ccco1)C1C(=O)CCC1=O
inactive: dose: 50.0 mg/kg/injection, schedule: Q01DX005 (ip), vehicle: Klucel + Tween-80 98 % of control | dose: 100.0 mg/kg/injection, schedule: Q01DX005 (ip), vehicle: Klucel + Tween-80 104 % of control

CC(O)c1cccc(C(C)(C)O)c1Sc1c(C(C)(C)O)cccc1C(C)(C)O (configuration not stated)
inactive: dose: 100.0 mg/kg/injection, schedule: Q04DX003 (ip), vehicle: Klucel (hydroxypropylcellulose) (HPC) 99 % of control | dose: 200.0 mg/kg/injection, schedule: Q04DX003 (ip), vehicle: Klucel (hydroxypropylcellulose) (HPC) 98 % of control | dose: 400.0 mg/kg/injection, schedule: Q04DX003 (ip), vehicle: Klucel (hydroxypropylcellulose) (HPC) 97 % of control

O=c1c2ccccc2nc2ccc(Cl)nn12
inactive: [2] 95 % of control | [3] 100 % of control

CC(/C=C/c1ccco1)=N\NC(=S)Nc1ccc(Br)cc1
inactive: dose: 100.0 mg/kg/injection, schedule: Q04DX002 (ip), vehicle: Klucel (hydroxypropylcellulose) (HPC) 97 % of control | dose: 200.0 mg/kg/injection, schedule: Q04DX002 (ip), vehicle: Klucel (hydroxypropylcellulose) (HPC) 97 % of control | dose: 400.0 mg/kg/injection, schedule: Q04DX002 (ip), vehicle: Klucel (hydroxypropylcellulose) (HPC) 92 % of control

CC(C)/C=C1\C(=O)NCC(=O)N1Cc1ccccc1
inactive: dose: 75.0 mg/kg/injection, schedule: Q01DX001 (ip), vehicle: Klucel (hydroxypropylcellulose) (HPC) 103 % of control | dose: 150.0 mg/kg/injection, schedule: Q01DX001 (ip), vehicle: Klucel (hydroxypropylcellulose) (HPC) 100 % of control | dose: 300.0 mg/kg/injection, schedule: Q01DX001 (ip), vehicle: Klucel (hydroxypropylcellulose) (HPC) 94 % of control

Clc1ccc(OCC(COc2ccc(Cl)cc2)(COc2ccc(Cl)cc2)COc2ccc(Cl)cc2)cc1
inactive: dose: 7.5 mg/kg/injection, schedule: Q01DX009 (ip), vehicle: saline with Tween-80 99 % of control | dose: 15.0 mg/kg/injection, schedule: Q01DX009 (ip), vehicle: saline with Tween-80 104 % of control | dose: 30.0 mg/kg/injection, schedule: Q01DX009 (ip), vehicle: saline with Tween-80 95 % of control

Cc1c([O-])[n+]2cccc3ccn(c1=O)c32
inactive: dose: 60.0 mg/kg/injection, schedule: Q01DX005 (ip), vehicle: Klucel (hydroxypropylcellulose) (HPC) 97 % of control | dose: 120.0 mg/kg/injection, schedule: Q01DX005 (ip), vehicle: Klucel (hydroxypropylcellulose) (HPC) 100 % of control | dose: 240.0 mg/kg/injection, schedule: Q01DX005 (ip), vehicle: Klucel (hydroxypropylcellulose) (HPC) 94 % of control
